Data: patent US9169182B2, “Chrysophaentin analogs that inhibit FtsZ protein” (priority 2011, dated 2015)
Converted amounts (≈) assume the structure as drawn.

Assays:
recombinant E. coli FtsZ = recombinant E. coli FtsZ (Escherichia coli (strain K12), UniProt P0A9A6); assay: FtsZ GTPase assay (malachite green); details: read-out: FtsZ in vitro IC50 μM Ec-FtsZ
Method: (§3) Solutions were incubated at room temperature for 5 min, followed by addition of 0.25 mM GTP. At the end of a 20-min incubation period, enzyme activity was quenched by addition of 50 μL Malachite Green solution and the wells read at A^625 on an absorbance plate reader.

[1] = system: clinical isolate of MRSA (USA300); assay: Microbroth dilution assay; type: cell-based; details: Staphylococcus aureus
Method: (§1) Compounds 1-8 were tested for antimicrobial activity against Staphylococcus aureus (SA, ATCC 25923), methicillin-resistant S. aureus (MRSA, ATCC BAA-41), multidrug-resistant S. aureus (MDRSA, ATCC BAA-44), Enterococcus faecium (EF, ATCC 49032), vancomycin-resistant E. Faecium (VRE, ATCC 700221), and Bacillus subtilis (ATCC 49343) using a modified disk diffusion assay and microbroth liquid dilution assays. For disk diffusion assays, agar plates seeded with suspensions of bacteria were prepared by adding 500 μL of a 24 h culture of bacteria to 100 mL of autoclaved Mueller Hinton II agar and cooled to 55° C. Seeded liquid agar (10 mL) was transferred immediately to square Petri dishes and allowed to cool for 1 h. Control drugs used for each microorganism included kanamycin (50 μg) for S. aureus, and nitrofurantoin (25 μg) for MRSA. Following incubation at 37° C. for 18 h, zones of inhibition were measured. MICso values for compounds 1 and 4-8 were determined using a microbroth dilution assay outlined in the Clinical and Laboratory Standards Institute methods for susceptibility tests for bacteria that grow aerobically. Briefly, single bacterial colonies were used to inoculate 4 mL of Trypticase Soy broth (BD) for overnight growth and inoculum for each were diluted to 5×10^5 CFU/mL using the 0.5 McFarland standard. In a 96 well plate (Costar, round bottom), control antibiotics (oxacillin for SA and MRSA, vancomycin for EF and VRE, chloramphenicol for B. subtilis) or natural product inhibitors were added to Mueller Hinton II broth (for S. aureus, MRSA, and B. subtilis) or 10% brain heart infusion broth (for E. faecium and VRE) in the first column of the well plates, and serially diluted across the plate, reserving wells for a positive growth control (no treatment). 10 μL of diluted bacteria were added to all wells with the exception of those kept for broth blanks (MHII or brain heart infusion broth only). Plates were incubated at 37° C. overnight and read at absorbance 600 nm on a Molecular Devices plate reader. Growth curves were plotted and ICso values obtained using Kalidagraph software.
(§2) Compounds J23 and J24 were tested for antimicrobial activity against Bacillus subtilis (BS, ATCC 49343), Staphylococcus aureus (SA, ATCC 25923), methicillin-resistant S. aureus (MRSA, ATCC BAA-41), multidrug-resistant S. aureus (MDRSA, ATCC BAA-44), Escherichia coli (EC, ATCC 8739), envelope-deficient E. coli (envA-EC; permeable (envA-) BL21(DE3)pLysS E. coli [constructed using standard P1 transduction methodology, utilizing a Tn10transposon linked to the envA1 gene]; Wang et al., J. Biol. Chem. 2003, 278(45):44424-44428), a clinical isolate of S. aureus (UAMS-1; clinical osteomyelitis isolate; Olson et al., PLoS Pathogens 2011, 7(2):e1001287, www.plospathogens.org), and a clinical isolate of MRSA (USA300; the strain USA300-0114 is the predominant cause of U.S. community-associated methicillin resistant S. aureus infections). MIC50 values were determined using a microbroth dilution assay as described in Example 2. E. coli was grown in Mueller Hinton II broth.

[2] = system: Bacillus subtilis (ATCC 49343); assay: Microbroth dilution assay; type: cell-based; details: ATCC49343, read-out: MIC50 values in μM BS
Method: as §1, §2

[3] = system: methicillin-resistant S. aureus (MRSA, ATCC BAA-41); assay: Microbroth dilution assay; type: cell-based; details: Staphylococcus aureus
Method: as §1, §2

[4] = system: envelope-deficient E. coli (envA-EC); assay: Microbroth dilution assay; type: cell-based; details: Escherichia coli, read-out: MIC50 values in μM envA-EC
Method: as §1, §2

[5] = system: Escherichia coli (EC, ATCC 8739); assay: Microbroth dilution assay; type: cell-based; details: ATCC8739
Method: as §1, §2

[6] = system: clinical isolate of S. aureus (UAMS-1); assay: Microbroth dilution assay; type: cell-based; details: Staphylococcus aureus
Method: as §1, §2

[7] = system: Staphylococcus aureus (SA, ATCC 25923); assay: Microbroth dilution assay; type: cell-based; details: ATCC25923, microbroth dilution
Method: as §1, §2

[8] = system: multidrug-resistant S. aureus (MDRSA, ATCC BAA-44); assay: Microbroth dilution assay; type: cell-based; details: Staphylococcus aureus, ATCCBAA44, read-out: MIC50 values in μM MDRSA
Method: as §1, §2

Sa-FtsZ = Sa-FtsZ (Staphylococcus aureus, UniProt P0A031); type: biochemical; details: GTPase assay; read-out: FtsZ in vitro IC50 μM Sa-FtsZ
Method: as §3

Chain of recombinant E. coli FtsZ (P0A9A6 whole entry, looked up): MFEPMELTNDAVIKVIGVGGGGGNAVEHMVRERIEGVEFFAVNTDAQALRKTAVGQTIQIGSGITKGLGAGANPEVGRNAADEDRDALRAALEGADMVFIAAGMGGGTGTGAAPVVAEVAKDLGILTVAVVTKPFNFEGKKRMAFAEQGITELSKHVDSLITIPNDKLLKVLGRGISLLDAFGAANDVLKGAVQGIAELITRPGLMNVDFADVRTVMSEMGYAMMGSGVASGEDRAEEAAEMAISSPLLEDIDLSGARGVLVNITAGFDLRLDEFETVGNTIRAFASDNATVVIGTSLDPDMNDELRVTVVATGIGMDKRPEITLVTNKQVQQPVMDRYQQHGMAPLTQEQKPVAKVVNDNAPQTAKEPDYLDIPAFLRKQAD

SMILES | IC50 (recombinant E. coli FtsZ) [µM] | MIC50 [1] [µM] | MIC50 [2] [µM] | MIC50 [3] [µM] | MIC50 [4] [µM] | MIC50 [5] [µM] | MIC50 [6] [µM] | MIC50 [7] [µM] | MIC50 [8] [µM] | IC50 (Sa-FtsZ) [µM]
COc1cc(C/C=C(/Cl)Cc2cc(O)cc(O)c2)c(OC)cc1Cl [Compound J23, (E)-5-(2-chloro-4-(4-chloro-2,5-dimethoxyphenyl)but-2-enyl)benzene-1,3-diol] | 36 ± 7 | 6 (≈ 2.22 µg/mL) | 19 (≈ 7.02 µg/mL) | 12 (≈ 4.43 µg/mL) | 120 (≈ 44.3 µg/mL) | > 270 | 7.4 (≈ 2.73 µg/mL) | 12 (≈ 4.43 µg/mL) | 12 (≈ 4.43 µg/mL) | 44 ± 12
Oc1cc(O)cc(C/C(Cl)=C\Cc2cc(O)c(Cl)cc2O)c1 [Compound J24, (E)-5-(2-chloro-4-(4-chloro-2,5-dihydroxyphenyl)but-2-enyl)-benzene-1,3-diol] | 160 ± 30 |  | 11 (≈ 3.75 µg/mL) | 22 (≈ 7.51 µg/mL) | 72 (≈ 24.6 µg/mL) | > 290 |  | 18 (≈ 6.14 µg/mL) | 26 (≈ 8.87 µg/mL) | 88 ± 11
